Assay results from US20050214945A1, “Htlv-I tax induced killing of p53 null cancer cells” (Eastern Virginia Medical School, priority 2002, published 2005).

What was measured:
REF52 cells [1] = test: Host cell reactivation assay (nucleotide excision repair capacity); assay type: cell-based, rat; conditions: Tax-expressing REF52 vs control GFP-expressing REF52; UV-damaged CAT reporter
Experimental: pSV2-CAT reporter plasmid was damaged ex vivo by exposure to 1000 j/m^2 of Uv-C light using a UV chamber-GS Gene Linker (Bio-Rad). REF52 and XP-A cells were transfected with 4 μg of UV-irradiated or non-irradiated pSV2-CAT plasmid together with an undamaged reporter plasmid (pMSV-Luc), and with or without Tax plasmid. Forty-eight hours after calcium phosphate transfection, cells were pelleted and resuspended in 250 μl of 250 mM Tris pH8.0. For the Luciferase assay, 25 μl of the total cellular extract was added to 50 μl of luciferase substrate. Luciferase activity was quantitated in a Luminometer. Cat assays were performed in parallel with the same cells as described (Semmes, O., et al., J. Virol. 66(12):7183-92 (1992)). Cat activity was normalized to luciferase activity of the same extract. Repair activity was calculated by setting normalized cat activity from cells cotransfected with non-irradiated pSV2-CAT to 100%. The repair activity of duplicate cells cotransfected with irradiated pSV2-CAT was reported as a percentage of that activity.
In examining the biological response of Tax-expressing cells to UV-induced DNA damage, efficient Nucleotide Excision Repair (NER) ability was tested. The Host Cell Reactivation Assay (HCRA) was used as a measure of NER capacity in Tax-expressing REF52 cells. […] Thus, Tax expression results in reduced NER capacity as measured by HCRA.

REF52 cells [2] = test: UV-induced apoptosis, Vybrant Apoptosis Assay; assay type: cell-based, rat; conditions: Tax-expressing REF52 following UV exposure
Experimental: (§1) Tax-expressing cells were treated with different UV doses (0, 20 and 50 j/m^2) and assessed at different time points post-transduction (4, 8, 12 and 24 hrs). Cells were separated into living, necrotic or apoptotic populations using the triple source fluorescent labeling, Vybrant Apoptosis Assay kit (Molecular Probes) according to the manufacturer's recommendations.
In addition to repair, at least two key events occured in the UV-induced cellular DNA damage response. These are initiation of cell cycle arrest and induction of apoptosis. The ability of Tax-expressing REF52 cells to undergo cell cycle arrest and apoptosis was assessed. Tax-expressing and control cells were subjected to UV irradiation and examined for apoptotic events and cell cycle profile. Prior to exposure to UV, the percent of non-apoptotic, apoptotic and necrotic cells were examined. The three populations were identified using the Vybrant assay. […] The same results were seen using several Tax-expressing cells including GM00010B (data not shown).

REF52 cells [3] = test: Cytokinesis block cell cycle progression assay; assay type: cell-based, rat
Experimental: (§2) Asynchronous cell cultures were seeded on coverslips and exposed to UV irradiation and allowed to recover for 1 hour. Cytochalasin B was added and the cultures incubated for 36 hours. The coverslips were fixed with paraformaldehyde/methanol and stained with propidium iodide. Slides were prepared and cell nuclei examined by microscopy. Bi-nucleus cells were considered dividing.
Next, the cell cycle response of Tax-expressing cells was measured. REF52 and REF+Tax cells were subjected to the cytokinesis block cell cycle arrest assay to determine the intactness of the damage-induced checkpoint. In this assay, asynchronous cells were exposed to UV and incubated with cytochalasin B one hour later. The cell population was examined 36 hours later and assessed for division events. […] In contrast REF52 cells exposed to UV light initiated cell cycle arrest and presented a predominately (>90%) mononuclear cell population. However, Tax-expressing REF52 cells, exposed to UV, presented nearly 75% of the population as binucleated cells indicating a failure to arrest in cell cycle in response to UV-induced DNA damage. For each data point, 1000 cells were analyzed.

REF52 cells [4] = test: Global nucleotide excision repair assay (unscheduled DNA synthesis, BrdU); assay type: cell-based, rat; conditions: G1 synchronized cells, UV 20 j/m^2, BrdU
Experimental: REF52 cells were seeded onto glass coverslips and transduced to express Tax at 25% efficiency. Sub-confluent Tax-expressing REF52 cells were cultured in 0.5% serum for 48 hrs, to synchronize at G0, prior to irradiation. The cells were released from G0 with addition of complete medium. At four hours post-release, the cells were irradiated with UV light (20 j/m^2) using a UV chamber-GS Gene Linker (Bio-Rad) and incubated for 30 min with 10 μM BrdU containing medium. The cells were then washed 4× with PBS and fixed in 4% paraformaldehyde. Cells were permeabilized with 2 minutes incubation in 100% methanol and washed 4× with PBS. The prepared cells were then reacted with both anti-Tax and anti-BrdU in PBS (containing 2% BSA). Primary antibodies were removed by washing 4× with 1% Tween 20 in PBS (PBS-Tween). Secondary conjugated antibodies were reacted for one hour at room temperature (RT). The cells were then washed with PBS-Tween and the slips were inverted onto slides with Vecta Shield (Vector Laboratories, CA). Incorporation of BrdU into the nucleus of cells at G1 corresponded to unscheduled repair synthesis.
A failure in damage-induced cell cycle arrest would result in reduced repair efficiency and could explain the Tax-associated NER deficiency. […]

p53 = test: Nuclear accumulation of p53 after UV (immunostaining); assay type: cell-based, rat; conditions: Tax-expressing REF52 in response to UV damage
Source text: A key player in initiation of the UV-repair response and activation of cell cycle arrest is p53. Activation of p53 is signaled by an accumulation of P53 in the nucleus of cells exposed to UV light. To examine whether Tax-expressing cells display this early p53 response, REF52 cells were transduced with suboptimal viral titers to produce an estimated 50% transduction efficiency. The cells were exposed to UV and examined for nuclear expression of p53.

p53 and p21 = test: Immunoblot of p53 and p21 after UV; assay type: cell-based, rat; conditions: UV-induced DNA damage; Tax-expressing and control REF52
Experimental: Approximately 2×10^6 cells were harvested and proteins extracted with […] Mammalian Protein Extraction Reagent (Pierce). 50 μl of 4× Laemmli buffer was added to the lysate. […] of the lysate was electrophoresed through a 10% SDS polyacrylamide gel. The proteins were electroblotted onto an Immobolin-P membrane (Millipore), and probed with the indicated primary antibody and the appropriate secondary alkaline phosphatase-conjugated antibody. Immunoreactivity was detected via Western Star chemiluminescence protein detection (Tropix).
To further analyze the p53 response in Tax-expressing cells, both Tax-expressing and control REF52 cells were examined for stabilization of steady-state p^53 and transient induction of p21. Since induction of p21 is a key event in p53-mediated cell cycle arrest, analysis of the p21 levels in Tax-expressing cells could determine the integrity of this signal. Tax-expressing and control cells were exposed to UV and harvested for western analysis pre-exposure and at eight hours and twenty four hours post exposure. […] Thus, one p53-dependent signal for cell cycle arrest, transient induction of p21, was intact.

[5] = tested on: Hela cells and p53 deleted cell line; test: Cytokinesis block cell cycle progression assay in p53 repressed/deleted cells; assay type: cell-based; conditions: exposed to UV, cytochalasin B, 36 hours; partial (25%) and 100% transduction
Experimental: as §2
To test this hypothesis, the cell cycle arrest response was examined in Tax-expressing and control p53−/− cells. Tax-expressing and control Hela cell groups were subjected to the cytokinesis block cell cycle progression assay as described above. Each cell group was exposed to UV and incubated with cytochalasin B one hour later. The cells were examined after 36 hours for the presence of binucleated dividing cells. Hela cells transduced to express Tax at 25% efficiency. Tax-expressing Hela cells were identified by immunofluorescence using anti-Tax mouse monoclonal antibody and FITC-conjugated anti-mouse secondary antibody. The nuclei were stained with propidium iodide. Hela and Tax-expressing Hela formed binuclei indicating normal division. […] In experiments using 100% transduction of Tax, 1000 cell events were counted.

REF52 and p53d cells = test: Flow cytometry cell cycle analysis (G1 checkpoint) after UV; assay type: cell-based; conditions: synchronized at G0, UV treatment, 20% serum; wild type or deleted p53 background
Experimental: For cell cycle analysis, cells were collected by gentle scraping following a rapid EDTA rinse and concentrated by low speed centrifugation and washed in 1×PBS, and fixed with cold 70% ethanol. Cells were stained with a PI solution (PBS 1×, RNase A [10 μg/ml], and Propidium Iodide [50 μg/ml]) followed by cell sorting analysis. FACS data acquired were analyzed by CellQuest software.
To determine whether the failure in cell cycle arrest was due to a failed G1 checkpoint, cells were synchronized at G0 by serum starvation. The cells were then cultured in 20% serum to stimulate return to cell cycle following UV treatment. Cell cycle was determined by total DNA content as described above. […] This was true for either a wild type or deleted p53 background. Therefore, the failure in cell cycle arrest is due at least in part to a failed G1 arrest.

[6] = tested on: p53 mutant background (HeLa); test: Percent surviving cells after sublethal UV; assay type: cell-based; conditions: 24 hours after treatment, vs control cells
Experimental: (§3) It was reasoned that if Tax-expressing cells display impaired damage response in a p53 independent manner then cells both deleted for p53 and expressing Tax would be more prone to apoptotic cell death in response to UV. To test this hypothesis, the apoptotic response of both Tax-expressing and control p53−/− cells was examined. Tax-expressing and control cells were exposed to sublethal doses of UV and examined for percent surviving cells 24 hours after treatment.

p53−/− cells [7] = test: Percent surviving cells after sublethal UV; assay type: cell-based; conditions: 24 hours after treatment
Experimental: as §3

p53+/+ cells (REF52) = test: Percent surviving cells after sublethal UV; assay type: cell-based, rat; conditions: 24 hours after treatment, vs control cells
p53−/− cells [8] = test: UV-induced apoptosis, Vybrant Apoptosis Assay; assay type: cell-based; conditions: UV 20 and 50 J/m^2, 12 and 24 hours
Experimental: as §1
The early apoptotic response of Tax-expressing p53−/− cells was also observed. In this series of experiments the cell groups were exposed to 0 J/m^2, 20 J/m^2 and 50 J/m^2 and apoptosis measured at 12 and 24 hours (FIG. 7). […] This level of UV-induced apoptosis is equivalent to that seen in cells defective in NER (FIG. 3).

Tax
NER capacity (REF52 cells [1]): significantly reduced | apoptotic response to DNA damage (REF52 cells [2]): normal apoptotic response | binucleated cells (REF52 cells [3]; exposed to UV, cytochalasin B, examined 36 hours later, 1000 cells per data point): ~75% | binucleated cell profile without UV (REF52 cells [3]; unexposed to UV): same profile as in the absence of Tax | UV-induced unscheduled DNA synthesis (REF52 cells [4]): indistinguishable from control cells | nuclear accumulation of P53 (p53): strong nuclear accumulation of P53 | steady-state protein levels of p53 (p53 and p21): stabilization of steady-state protein levels of p53 | percent of binucleated cells [5]: > 72% | percentage of cells leaving G1 (REF52 and p53d cells): consistent and significant increase | percent of surviving cells [6]: no decreased percent of surviving cells | cell death in response to UV exposure (p53−/− cells [7]): significant cell death | percent of surviving cells (p53+/+ cells (REF52)): no decreased percent of surviving cells | apoptosis (p53−/− cells [8]): Significant apoptosis
